From patent EP0355842A2, “External preparation” (Sansho Seiyaku Co., Ltd., priority 1988, dated 1990)

These molecules were tested on B16 cells (assay: Melanin-production test of B16 cells). Conditions: evaluated concentration 80 µM; culture for 5 days.
Assay type: cell-based, mouse
Method: Experimental Example: Melanin-production test of B16 cells
B16 cells (4 x 10⁴) derived from mouse melanoma are suspended in Eagle MBM medium containing bovine fetal serum (10 ml) for culture in the presence of 5% CO₂ at 37°C in 25-cm³ Rou bottle. At day 0 and 3, the medium is replaced for a medium containing each of the above substances of 80 µM/l or 60 µM/l to continue the culture for 5 days. The cells washed with phosphate buffer (pH 7.2) containing 0.8 W/V NaCl, were separated using the solution containing trypsin and EDTA, and filtered to recover the cells. The cells recovered on the filter were measured of their reflection luminous intensity (degree of darkness) at 500 nm with a densitometer.

**Q.** `CCC=CCCCCCCCC(=O)OCC(O)CO` (stereo not drawn) [1-Monododecenoin] was tested. Which Melanin levels did it give?
**A.** 4.2 µg/10^6 cells

**Q.** And the Number of cells?
**A.** 2.7 × 10^4 cells

**Q.** Which results are given for `CCCCCCC=CCCCCCCCCC(=O)O` [10-Heptadecenoic acid]?
**A.** Melanin levels: 0.5 µg/10^6 cells; Number of cells: 2.6 × 10^4 cells

**Q.** Which results are given for `CCC=CCCCCCCCC(=O)O` [9-Dodecenoic acid]?
**A.** Melanin levels: 4.6 µg/10^6 cells; Number of cells: 2.7 × 10^4 cells

**Q.** For `CCCCCC/C=C\CCCCCCCC(=O)OC(CO)CO` [2-Monopalmitolein], which Melanin levels is on record?
**A.** 0.1 µg/10^6 cells

**Q.** What about the Number of cells of the same molecule?
**A.** 2.1 × 10^4 cells

**Q.** With `CCCCCC/C=C\CCCCCCCC(=O)OCC(CO)OC(=O)CCCCCCC/C=C\CCCCCC` (stereo not drawn) [1,2-Dipalmitolein] as the molecule, how does the Melanin levels read?
**A.** 0.1 µg/10^6 cells

**Q.** And the Number of cells?
**A.** 2.2 × 10^4 cells

**Q.** Which Melanin levels does the source give for `CCCC=CCCCCC(=O)O` [6-Decenoic acid] here?
**A.** 4.8 µg/10^6 cells

**Q.** What about the Number of cells of the same molecule?
**A.** 2.6 × 10^4 cells

**Q.** Which Melanin levels does the source give for `CCCCCC/C=C\CCCCCCCC(=O)OC` [Palmitoleic acid methyl] here?
**A.** 0.1 µg/10^6 cells

**Q.** What about the Number of cells of the same molecule?
**A.** 2.6 × 10^4 cells

**Q.** How did the Melanin levels turn out when `CCCC/C=C\CCCCCCCC(=O)OCC(COC(=O)CCCCCCC/C=C\CCCC)OC(=O)CCCCCCC/C=C\CCCC` [Trimyristolein] was run?
**A.** 1.5 µg/10^6 cells

**Q.** What about the Number of cells of the same molecule?
**A.** 2.5 × 10^4 cells

**Q.** What does the source list for `CCCC=CCCCCCC(=O)O` [7-Undecenoic acid]?
**A.** Melanin levels: 4.7 µg/10^6 cells; Number of cells: 2.7 × 10^4 cells

**Q.** How did the Melanin levels turn out when `CCCCCCC=CCCCCCCCCC(=O)OCC(COC(=O)CCCCCCCCC=CCCCCCC)OC(=O)CCCCCCCCC=CCCCCCC` (stereo not drawn) [Triheptadecenoin] was run?
**A.** 1.0 µg/10^6 cells

**Q.** What about the Number of cells of the same molecule?
**A.** 2.7 × 10^4 cells

**Q.** With `CCC=CCC(=O)OC(CO)CO` [2-Monohexenoin] as the molecule, how does the Melanin levels read?
**A.** 4.3 µg/10^6 cells

**Q.** And the Number of cells?
**A.** 2.4 × 10^4 cells

**Q.** Which results are given for `CCCC/C=C\CCCCCCCC(=O)OCC(O)CO` (stereo not drawn) [1-Monomyristolein]?
**A.** Melanin levels: 2.2 µg/10^6 cells; Number of cells: 2.5 × 10^4 cells

**Q.** `CCCCC=CCC=CCCCCC(=O)O` [6,9-Tetradecadienoic acid] was tested. Which Melanin levels did it give?
**A.** 0.3 µg/10^6 cells

**Q.** And the Number of cells?
**A.** 2.5 × 10^4 cells

**Q.** For `CCCCCC/C=C\CCCCCCCC(=O)OC[C@H](COP(=O)([O-])OCC[N+](C)(C)C)OC(=O)CCCCCCC/C=C\CCCCCC` [L-α-Lecithin dipalmitoleyl], which Melanin levels is on record?
**A.** 3.9 µg/10^6 cells

**Q.** What about the Number of cells of the same molecule?
**A.** 2.8 × 10^4 cells

**Q.** Which results are given for `CCCCCCC=CCCCCCCCCC(=O)OC(CO)CO` [2-Monoheptadecenoin]?
**A.** Melanin levels: 0.3 µg/10^6 cells; Number of cells: 2.2 × 10^4 cells

**Q.** How did the Melanin levels turn out when `CCC=CCCCCCCCC(=O)OCC(CO)OC(=O)CCCCCCCC=CCC` (stereo not drawn) [1,2-Didodecenoin] was run?
**A.** 4.0 µg/10^6 cells

**Q.** And the Number of cells?
**A.** 2.4 × 10^4 cells

**Q.** How did the Melanin levels turn out when `CCCCCC/C=C\CCCCCCCC(=O)OCC(COC(=O)CCCCCCC/C=C\CCCCCC)OC(=O)CCCCCCC/C=C\CCCCCC` [Tripalmitolein] was run?
**A.** 0.1 µg/10^6 cells

**Q.** And the Number of cells?
**A.** 2.1 × 10^4 cells

**Q.** Which results are given for `CC=CC(=O)O` [2-Butenoic acid]?
**A.** Melanin levels: 4.6 µg/10^6 cells; Number of cells: 2.7 × 10^4 cells

**Q.** What does the source list for `CCCCCC/C=C/CCCCCCCC(=O)OC[C@H](COP(=O)([O-])OCC[N+](C)(C)C)OC(=O)CCCCCCC/C=C/CCCCCC` [L-α-Lecithin dipalmitoelaidoyl]?
**A.** Melanin levels: 3.8 µg/10^6 cells; Number of cells: 2.7 × 10^4 cells

**Q.** How did the Melanin levels turn out when `CCCCC=CCCCCCCCC(=O)O` [9-Tetradecenoic acid] was run?
**A.** 0.3 µg/10^6 cells

**Q.** And the Number of cells?
**A.** 2.5 × 10^4 cells

**Q.** Which results are given for `CCC=CCCCCCCCCC(=O)O` [10-Tridecenoic acid]?
**A.** Melanin levels: 3.0 µg/10^6 cells; Number of cells: 2.7 × 10^4 cells

**Q.** `CCCCC=CCCCCCCCCC(=O)OCC(CO)OC(=O)CCCCCCCCC=CCCCC` (stereo not drawn) [1,2-Dipentadecenoin] was tested. Which Melanin levels did it give?
**A.** 0.1 µg/10^6 cells

**Q.** And the Number of cells?
**A.** 2.5 × 10^4 cells

**Q.** Which results are given for `CCCC/C=C\CCCCCCCC(=O)OC` [Myristoleic acid methyl]?
**A.** Melanin levels: 1.2 µg/10^6 cells; Number of cells: 2.6 × 10^4 cells

**Q.** Which Melanin levels does the source give for `CCCCCCC=CCCCCCCCCC(=O)OCC(O)COC(=O)CCCCCCCCC=CCCCCCC` (stereo not drawn) [1,3-Heptadecenoin] here?
**A.** 1.2 µg/10^6 cells

**Q.** What about the Number of cells of the same molecule?
**A.** 2.1 × 10^4 cells

**Q.** `CCCCC=CCCCCCCCCC(=O)OCC(O)CO` (stereo not drawn) [1-Monopentadecenoin] was tested. Which Melanin levels did it give?
**A.** 0.1 µg/10^6 cells

**Q.** And the Number of cells?
**A.** 2.4 × 10^4 cells

**Q.** `CCCCC=CCCCCCCCCC(=O)OCC(COC(=O)CCCCCCCCC=CCCCC)OC(=O)CCCCCCCCC=CCCCC` (stereo not drawn) [Tripentadecenoin] was tested. Which Melanin levels did it give?
**A.** 0.2 µg/10^6 cells

**Q.** And the Number of cells?
**A.** 2.2 × 10^4 cells

**Q.** With `CCCC/C=C\CCCCCCCC(=O)OCC(O)COC(=O)CCCCCCC/C=C\CCCC` [1,3-Dimyristoelin] as the molecule, how does the Melanin levels read?
**A.** 1.2 µg/10^6 cells

**Q.** And the Number of cells?
**A.** 2.0 × 10^4 cells

**Q.** What does the source list for `CCCCC=CCCCCCCCCC(=O)OC` [10-Pentadecenoic acid methyl]?
**A.** Melanin levels: 0.1 µg/10^6 cells; Number of cells: 2.7 × 10^4 cells

**Q.** Which results are given for `CCCCC=CCCCCCCCCC(=O)OCC(O)COC(=O)CCCCCCCCC=CCCCC` (stereo not drawn) [1,3-Dipentadecenoin]?
**A.** Melanin levels: 0.2 µg/10^6 cells; Number of cells: 2.1 × 10^4 cells

**Q.** Which Melanin levels does the source give for `CCCCC=CCCCCCCCCC(=O)O` [10-Pentadecenoic acid] here?
**A.** 0.1 µg/10^6 cells

**Q.** And the Number of cells?
**A.** 2.6 × 10^4 cells

**Q.** Which results are given for `CC=CCCCCC(=O)OCC(O)CO` (stereo not drawn) [1-Monooctenoin]?
**A.** Melanin levels: 4.5 µg/10^6 cells; Number of cells: 2.6 × 10^4 cells

**Q.** Which results are given for `CCCCCC/C=C\CCCCCCCC(=O)OCC(O)CO` (stereo not drawn) [1-Monopalmitolein]?
**A.** Melanin levels: 0.1 µg/10^6 cells; Number of cells: 2.2 × 10^4 cells

**Q.** Which Melanin levels does the source give for `CCCC/C=C\CCCCCCCC(=O)OCC(CO)OC(=O)CCCCCCC/C=C\CCCC` (stereo not drawn) [1,2-Dimyristolein] here?
**A.** 2.8 µg/10^6 cells

**Q.** What about the Number of cells of the same molecule?
**A.** 2.5 × 10^4 cells

**Q.** `CCCCCCC=CCC=CCCCCC(=O)O` [6,9-Hexadecadienoic acid] was tested. Which Melanin levels did it give?
**A.** 0.1 µg/10^6 cells

**Q.** What about the Number of cells of the same molecule?
**A.** 2.4 × 10^4 cells

**Q.** How did the Melanin levels turn out when `CCC=CCC=CCCCCCC(=O)O` [7,10-Tridecadienoic acid] was run?
**A.** 3.2 µg/10^6 cells

**Q.** What about the Number of cells of the same molecule?
**A.** 2.4 × 10^4 cells

**Q.** What does the source list for 2-Monopentadecenoin?
**A.** Melanin levels: 0.1 µg/10^6 cells; Number of cells: 2.2 × 10^4 cells

**Q.** How did the Melanin levels turn out when `CCCCCCC=CCCCCCCCC(=O)O` [9-Hexadecenoic acid] was run?
**A.** 0.1 µg/10^6 cells

**Q.** And the Number of cells?
**A.** 3.2 × 10^4 cells

**Q.** With `CCCC=CCC=CCC=CCCCCC(=O)O` [6,9,12-Hexadecatrienoic acid] as the molecule, how does the Melanin levels read?
**A.** 0.1 µg/10^6 cells

**Q.** And the Number of cells?
**A.** 2.5 × 10^4 cells

**Q.** Which Melanin levels does the source give for `CCCCCC/C=C\CCCCCCCC(=O)OCC(O)COC(=O)CCCCCCC/C=C\CCCCCC` [1,3-Dipalmitolein] here?
**A.** 0.1 µg/10^6 cells

**Q.** And the Number of cells?
**A.** 2.1 × 10^4 cells

**Q.** Which Melanin levels does the source give for `CCCCCCC=CCCCCCCCCC(=O)OC` [10-Heptadecenoic acid methyl] here?
**A.** 2.0 µg/10^6 cells

**Q.** What about the Number of cells of the same molecule?
**A.** 2.5 × 10^4 cells

**Q.** Which results are given for `CCCCCCC=CCCCCCCCCC(=O)OCC(O)CO` (stereo not drawn) [1-Monoheptadecenoin]?
**A.** Melanin levels: 0.4 µg/10^6 cells; Number of cells: 2.0 × 10^4 cells

**Q.** What does the source list for `CCCC=CCCCCCC(=O)OC(CO)CO` [2-Monoundecenoin]?
**A.** Melanin levels: 3.9 µg/10^6 cells; Number of cells: 2.5 × 10^4 cells

**Q.** Which Melanin levels does the source give for `CC=CCCCCC(=O)O` [6-Octenoic acid] here?
**A.** 4.7 µg/10^6 cells

**Q.** And the Number of cells?
**A.** 2.6 × 10^4 cells

**Q.** For `CCCCC=CCC=CCCCCCC(=O)O` [7,10-Pentadecadienoic acid], which Melanin levels is on record?
**A.** 0.1 µg/10^6 cells

**Q.** What about the Number of cells of the same molecule?
**A.** 2.6 × 10^4 cells

**Q.** Which results are given for `CCC=CCC=CCCCCC(=O)O` [6,9-Dodecadienoic acid]?
**A.** Melanin levels: 4.4 µg/10^6 cells; Number of cells: 2.5 × 10^4 cells
